Measurements reported in patent US20260060982A1, “USE OF BTK INHIBITOR AND SINGLE-DOSE DRUG” (HUBEI BIO-PHARMACEUTICAL INDUSTRIAL TECHNOLOGICAL INSTITUTE …, priority 2023, published 2026).

Assays:
BTK = BTK (Homo sapiens, UniProt Q06187); test: Inhibition of BTK kinase activity (HTRF); type: biochemical
Protocol: The specific experimental steps were as follows:
The BTK kinase/peptide mix solution was added to the assay plate at 5 μL per well, and centrifuged at 1000 rpm for 1 min. The assay plate was incubated at 23° C. for 15 min.
C. An ATP solution (3968 μL of 1.33× kinase reaction buffer and […] of 10 mM ATP) was prepared, added to the assay plate at 2.5 μL per well, and centrifuged at 1000 rpm for 1 min. The assay plate was incubated at 23° C. for 90 min.
The assay plate was incubated at 23° C. for 60 min and read on the Envision multilabel reader.
E. IC50 results were analyzed using XLFIT5 (Formula 205) from IDBS.

[1] = test system: anti-DNP IgE-induced passive cutaneous anaphylaxis in BALB/c mice; test: Passive cutaneous anaphylaxis (PCA) model in mice induced with anti-DNP IgE; type: in vivo
Excerpt: Passive cutaneous anaphylaxis test, also known as PCA reaction, is a local allergic reaction caused by antibodies that bind to the same or different animal tissues. The PCA animal model in the present disclosure was a passive sensitization model in which IgE binds to specific receptors on skin mast cells. When allergens were stimulated, local mast cells released allergic mediators, thereby increasing local vascular permeability. […] The specific steps were as follows:
The PCA model in mice was induced using anti-DNP IgE. Specifically, BALB/c mice were divided into 9 groups, namely, a normal control group (no administration, injection, or feeding of any solvent), a model group (no administration, injection, or feeding of any solvent), a prednisone group (10 mg/kg, administered for 3 consecutive days, QD (once a day), prednisone concentration of 1 mg/mL, and an administration volume of 10 mL/kg), a cetirizine group (20 mg/kg, administered for 3 consecutive days, QD, cetirizine concentration of 2 mg/mL, and an administration volume of 10 mL/kg), a low-dose group and a medium-dose group for the test substance LOU-064 (15 mg/kg and 45 mg/kg, administered for 3 consecutive days, BID (twice a day), LOU-064 concentrations of 1.5 mg/mL and 4.5 mg/mL, and an administration volume of 10 mL/kg), and a low-dose group, a medium-dose group, and a high-dose group for compound (I) (15 mg/kg, 45 mg/kg, and 90 mg/kg, administered for 3 consecutive days, BID, compound (I) concentrations of 1.5 mg/mL, 4.5 mg/mL, and 9 mg/mL, and an administration volume of 10 mL/kg), with 9 mice in each group, administered by gavage for a total of 4 days. On day 3 of the administration, anti-DNP IgE (Sigma-Aldrich) was injected into the left ears of 8 groups of mice (no normal control group), and the same volume of PBS was injected into the right ears of 8 groups and the left and right ears of the normal control group to allow it to bind to mast cells. Then, 24 hours after the fourth day of anti-DNP IgE injection, a mixed solution of antigen (DNP-HAS, Sigma) and pigment Evan's Blue (Sigma) (0.25 mL/mouse, i.v.) was injected into the tail vein (the normal control group was injected with the same volume of the mixed solution of antigen and pigment Evan's Blue). The antigen reacted with the antibody attached to the mast cells, causing a local allergic reaction, increased local vascular permeability, and pigment penetration into the tissue. The reaction intensity was determined by measuring the local pigment content 30 minutes later. The dye was extracted from the left and right ears, and the absorbance of Evan's blue was measured at a specific wavelength. […] The efficacy effects of each test substances in the PCA animal model were evaluated.

[2] = test system: collagen-induced arthritis in DBA/1 mice; test: Collagen-induced arthritis (CIA) model in mice; type: in vivo; conditions: for average body weight: after day 33
Protocol: Clinical symptoms of arthritis were induced in mice by injecting collagen emulsion into the tail of mice. The specific steps were as follows:
DBA/1 mice were randomly divided into 6 groups, with 10 mice in each group except the blank control group (5 mice). […] The day of the first immunization was recorded as day 0, and the subsequent days were marked in sequence. DBA/1 mice were anesthetized with isoflurane and injected subcutaneously with 50 μl of the prepared collagen emulsion (containing 200 μg of CII) at the tail (2 cm to 3 cm from the base of the tail). On day 21, the same volume of collagen emulsion was injected into the tail in the same way.
On day 28, when the average clinical score reached 1 to 2, the mice were randomly redivided into 4 treatment groups (10 mice per group) and a blank vehicle control group (10 mice per group) according to body weight and score. […] The administration was performed once daily for 14 days by gavage at 10 mL/kg. After the administration, the clinical score curve of each animal in each group was analyzed to calculate the area under the curve (AUC). The inhibition rate of each administration group relative to the blank vehicle control was calculated based on the average AUC between groups.
Clinical observation: From 7 days before immunization to 21 days after immunization, the basic health status and weight changes of DBA/1 mice were observed daily (recorded twice a week). After day 22, the health status, disease incidence, and weight changes of the mice were observed daily (recorded every two days) until the end of the experiment.
When mice began to develop symptoms of arthritis (clinical symptoms of arthritis appeared), they were scored on a scale from 0 to 4 based on the severity of the lesions (redness, swelling, joint deformation), with a maximum score of 4 for each limb and a maximum score of 16 for each animal. The scoring was performed at least three times a week.
Pathology: On day 42, mice were euthanized. The two hind limbs of the mice were taken, soaked in 10% formalin solution, decalcified with formic acid solution, embedded in paraffin, sectioned, stained with hematoxylin-eosin (HE), and observed under a microscope. The degree of joint damage was evaluated from four aspects: inflammatory cell infiltration, pannus formation, cartilage damage, and bone resorption, and scored on a scale from 0 to 4.

BTK, sequence (Q06187 whole entry): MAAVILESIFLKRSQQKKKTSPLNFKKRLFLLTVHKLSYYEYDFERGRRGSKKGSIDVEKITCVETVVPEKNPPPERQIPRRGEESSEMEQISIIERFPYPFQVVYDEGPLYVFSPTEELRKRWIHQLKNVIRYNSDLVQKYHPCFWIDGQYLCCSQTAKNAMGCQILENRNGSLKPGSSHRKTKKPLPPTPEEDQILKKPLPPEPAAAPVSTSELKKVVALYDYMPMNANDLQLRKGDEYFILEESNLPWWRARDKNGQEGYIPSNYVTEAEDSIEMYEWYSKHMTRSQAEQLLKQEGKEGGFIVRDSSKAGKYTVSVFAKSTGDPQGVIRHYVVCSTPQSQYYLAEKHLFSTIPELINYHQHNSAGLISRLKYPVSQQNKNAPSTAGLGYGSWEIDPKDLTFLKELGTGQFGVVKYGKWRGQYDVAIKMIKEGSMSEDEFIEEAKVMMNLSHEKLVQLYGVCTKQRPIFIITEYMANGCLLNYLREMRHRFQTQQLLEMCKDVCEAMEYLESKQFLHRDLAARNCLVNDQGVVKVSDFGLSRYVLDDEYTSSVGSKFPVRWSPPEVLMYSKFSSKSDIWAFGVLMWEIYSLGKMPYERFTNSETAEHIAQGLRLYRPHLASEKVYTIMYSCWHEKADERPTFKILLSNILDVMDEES

C=CC(=O)N1CCC[C@@H](n2nc(-c3ccc(Oc4ccccn4)cc3)c3c(N)n[nH]c(=O)c32)C1 [compound (I), (R)-1-(1-acryloylpiperidin-3-yl)-4-amino-3-(4-(pyridin-2-yloxy)phenyl)-1H-pyrazolo[3,4-d]pyridazin-7(6H)-one]
IC50 (BTK): ≤ 4 nM | Concentration of Evan's Blue, Left ear, Average value ([1]; 15 mg/kg BID by gavage): 25.68 µg/mL | Concentration of Evan's Blue, Left ear, Average value ([1]; 45 mg/kg BID by gavage): 18.21 µg/mL | Concentration of Evan's Blue, Left ear, Average value ([1]; 90 mg/kg BID by gavage): 22.00 µg/mL | Evan's Blue content in the modeling ear compared with the model group ([1]; three dose groups (15, 45, 90 mg/kg BID)): significantly reduced | inflammation inhibition rate (AUC of clinical score vs blank vehicle control) ([2]; 1 mg/kg once daily by gavage for 14 days): 65.5% | average body weight ([2]; 1 mg/kg): remained basically unchanged | inflammation inhibition rate (AUC of clinical score vs blank vehicle control) ([2]; 3 mg/kg once daily by gavage for 14 days): 82.4% | average body weight ([2]; 3 mg/kg): increased | inflammation inhibition rate (AUC of clinical score vs blank vehicle control) ([2]; 10 mg/kg once daily by gavage for 14 days): 83.9% | average body weight ([2]; 10 mg/kg): increased | pathology of foot joint bone tissue ([2]; three dose groups (1, 3, and 10 mg/kg), day 42): only mild inflammation
